Measured values reported in ChEMBL document CHEMBL1144838, “Use of lantibiotic synthetases for the preparation of bioactive constrained peptides” (Bioorg Med Chem Lett, 2008).
Non-standard residues stand in square brackets, D forms with d. Residues, ends and D or L forms follow the SMILES beside them. Dha = C=C(N)C(=O)O

What was measured:
Mus musculus [1] = species: Mus musculus; assay: Agonist activity at mu opioid receptor in mouse model; type: functional
Mus musculus [2] = species: Mus musculus; assay: Agonist activity at mouse delta opioid receptor in mouse model; type: functional
Tripeptidyl-peptidase 2 = Tripeptidyl-peptidase 2 (Homo sapiens, UniProt P29144); assay: Inhibition of human tripeptidyl peptidase2 from erythrocytes
Sequence of Tripeptidyl-peptidase 2 (P29144 whole entry): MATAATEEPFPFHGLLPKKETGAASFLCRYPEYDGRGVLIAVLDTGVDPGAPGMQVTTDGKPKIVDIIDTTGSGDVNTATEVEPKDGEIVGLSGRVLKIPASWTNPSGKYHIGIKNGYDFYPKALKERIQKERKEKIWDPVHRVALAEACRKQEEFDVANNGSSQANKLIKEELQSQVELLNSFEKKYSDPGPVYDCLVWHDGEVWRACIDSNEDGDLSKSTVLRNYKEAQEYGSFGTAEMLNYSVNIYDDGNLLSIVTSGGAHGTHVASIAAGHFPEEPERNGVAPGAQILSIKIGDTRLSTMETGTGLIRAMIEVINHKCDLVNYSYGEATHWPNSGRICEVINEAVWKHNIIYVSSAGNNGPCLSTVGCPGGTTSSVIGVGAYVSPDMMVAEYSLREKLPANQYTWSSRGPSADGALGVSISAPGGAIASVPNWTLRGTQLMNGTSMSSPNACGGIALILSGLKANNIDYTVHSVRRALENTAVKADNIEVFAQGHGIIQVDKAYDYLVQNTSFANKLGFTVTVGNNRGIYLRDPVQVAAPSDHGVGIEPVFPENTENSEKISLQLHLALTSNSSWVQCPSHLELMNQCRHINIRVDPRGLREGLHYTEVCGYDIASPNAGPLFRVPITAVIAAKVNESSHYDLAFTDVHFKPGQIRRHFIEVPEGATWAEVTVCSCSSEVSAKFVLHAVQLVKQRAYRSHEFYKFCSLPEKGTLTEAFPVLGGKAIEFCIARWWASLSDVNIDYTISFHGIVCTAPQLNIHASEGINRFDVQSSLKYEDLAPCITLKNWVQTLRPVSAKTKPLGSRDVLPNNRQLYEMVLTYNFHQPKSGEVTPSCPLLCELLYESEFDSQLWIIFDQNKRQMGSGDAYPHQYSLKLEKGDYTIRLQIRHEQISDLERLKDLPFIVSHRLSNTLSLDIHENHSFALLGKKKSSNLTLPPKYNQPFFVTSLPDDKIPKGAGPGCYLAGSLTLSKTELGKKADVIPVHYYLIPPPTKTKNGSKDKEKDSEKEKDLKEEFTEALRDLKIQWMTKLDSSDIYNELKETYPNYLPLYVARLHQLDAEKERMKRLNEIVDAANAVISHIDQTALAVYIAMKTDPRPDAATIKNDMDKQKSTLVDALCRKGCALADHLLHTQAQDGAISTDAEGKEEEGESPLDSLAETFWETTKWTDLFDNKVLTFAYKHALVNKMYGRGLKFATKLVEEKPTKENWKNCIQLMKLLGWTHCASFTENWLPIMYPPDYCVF

SMILES | ED50 (Mus musculus [1]) | ED50 (Mus musculus [2]) | Ki (Tripeptidyl-peptidase 2)
N[C@@H](Cc1ccc(O)cc1)C(=O)N[C@@H]1CSC[C@@H](C(=O)O)NC(=O)[C@H](Cc2ccccc2)NC(=O)CNC1=O | 0.0018 nM | 0.0018 nM | 
CN1CC[C@]23c4c5ccc(O)c4O[C@H]2[C@@H](O)C=C[C@H]3[C@H]1C5 [MORPHINE] | 15 nM | 15 nM | 
C=C(NC(=O)[C@H](C)NC(=O)[C@@H](N)CCCNC(=N)N)C(=O)N[C@H](C(=O)N[C@@H](C)C(=O)O)C(C)C (H-RA[Dha]VA-OH) |  |  | 20 nM
